From US7307061B2, “β-peptoids with antimicrobial activity” (E.I. du Pont de Nemours and Company, priority 2004, dated 2007)
In brackets after ≈: the same amount, converted by molar mass.

Tested on: E. coli ATCC 25922
Type: cell-based
Details: ATCC 25922, 24 h
Procedure: The minimal inhibitory concentration (MIC) for the peptoids was determined in sterile microtiter plates in a final volume of 200 μl using Trypticase Soy Broth (TSB; Difco Laboratories, Detroit, Mich.) as the growth medium. Serial two-fold dilutions of the peptoid stock were made in the plate wells such that concentrations ranged from 512 to 2 μg/ml in a volume of 100 μL. Each well was then inoculated with 100 μl of a dilute suspension of bacteria in TSB yielding a final concentration of 1×10^4 bacteria/ml. The final peptoid concentrations ranged from 256 μg/ml to […]. The assay plates were incubated at 37° C. for 24 hours inside a Bioscreen C microtitre plate reader (Thermo Labsystems; Vantaa, Finland). Optical Density (OD) of the medium at 600 nm was recorded every 20 minutes to monitor cell growth. The lowest concentration of peptoid preventing bacterial growth during the 24 hr period was defined as the MIC.
Table 1. Antibacterial activity of peptoids against E. coli ATCC 25922. The general structure for each of the Compounds 20 to 41 is represented by Formula V: […]

| Compound | MIC |
| --- | --- |
| CC(=O)N(CCC(=O)N(CCCN(C)C)CCC(=O)N(CCC(=O)N(CCC(=O)N(CCCN(C)C)CCC(=O)N(CCC(=O)N(CCC(=O)N(CCCN(C)C)CCC(=O)N(CCC(=O)NC(CCCCN)C(N)=O)CC(C)C)Cc1ccccc1)CC(C)C)Cc1ccccc1)CC(C)C)Cc1ccccc1 (centres unmarked) [Compound 20, Ac(Bz-DMAP-Ibu)3-Lys-NH2] | 128 µg/mL (≈ 84.1 µM) |
| CC(=O)N(CCC(=O)N(CCCN(C)C)CCC(=O)N(CCC(=O)N(CCC(=O)N(CCCN(C)C)CCC(=O)N(CCC(=O)N(CCC(=O)N(CCCN(C)C)CCC(=O)N(CCC(=O)N(CCC(=O)N(CCCN(C)C)CCC(=O)N(CCC(=O)N(CCC(=O)N(CCCN(C)C)CCC(=O)N(CCC(=O)NC(CCCCN)C(N)=O)CC(C)C)Cc1ccccc1)CC(C)C)Cc1ccccc1)CC(C)C)Cc1ccccc1)CC(C)C)Cc1ccccc1)CC(C)C)Cc1ccccc1 (centres unmarked) [Compound 21, Ac(Bz-DMAP-Ibu)5-Lys-NH2] | 128 µg/mL (≈ 53.1 µM) |
| CC(=O)N(CCC(=O)N(CCN)CCC(=O)N(CCC(=O)N(CCN)CCC(=O)N(CCC(=O)N(CCN)CCC(=O)N(CCC(=O)N(CCN)CCC(=O)N(CCC(=O)N(CCN)CCC(=O)N(CCC(=O)N(CCN)CCC(=O)NC(CCCCN)C(N)=O)CC(C)C)CC(C)C)CC(C)C)CC(C)C)CC(C)C)CC(C)C (centres unmarked) [Compound 26, Ac(Ibu-Aminoethyl)6-Lys-NH2] | 128 µg/mL (≈ 78.3 µM) |
| CC(=O)N(CCC(=O)N(CCCN(C)C)CCC(=O)N(CCC(=O)N(CCCN(C)C)CCC(=O)N(CCC(=O)N(CCCN(C)C)CCC(=O)N(CCC(=O)N(CCCN(C)C)CCC(=O)N(CCC(=O)N(CCCN(C)C)CCC(=O)NC(CCCCN)C(N)=O)CC(C)C)CC(C)C)CC(C)C)CC(C)C)CC(C)C (centres unmarked) [Compound 27, Ac(Ibu-DMAP)5-Lys-NH2] | >512 µg/mL |
| CC(=O)N(CCC(=O)N(CCCN(C)C)CCC(=O)N(CCC(=O)N(CCCN(C)C)CCC(=O)N(CCC(=O)N(CCCN(C)C)CCC(=O)N(CCC(=O)N(CCCN(C)C)CCC(=O)N(CCC(=O)N(CCCN(C)C)CCC(=O)N(CCC(=O)N(CCCN(C)C)CCC(=O)N(CCC(=O)N(CCCN(C)C)CCC(=O)N(CCC(=O)N(CCCN(C)C)CCC(=O)NC(CCCCN)C(N)=O)CC(C)C)CC(C)C)CC(C)C)CC(C)C)CC(C)C)CC(C)C)CC(C)C)CC(C)C (centres unmarked) [Compound 29, Ac(Ibu-DMAP)8-Lys-NH2] | >512 µg/mL |
| CC(=O)N(CCC(=O)N(CCN)CCC(=O)N(CCC(=O)N(CCN)CCC(=O)N(CCC(=O)N(CCN)CCC(=O)N(CCC(=O)N(CCN)CCC(=O)N(CCC(=O)N(CCN)CCC(=O)NC(CCCCN)C(N)=O)CC(C)C)CC(C)C)CC(C)C)CC(C)C)CC(C)C (centres unmarked) [Compound 30, Ac(Ibu-Aminoethyl)5-Lys-NH2] | >256 µg/mL |
| CC(=O)N(CCC(=O)N(CCC(=O)N(CCN)CCC(=O)N(CCC(=O)N(CCC(=O)N(CCN)CCC(=O)N(CCC(=O)N(CCC(=O)N(CCN)CCC(=O)NC(CCCCN)C(N)=O)CC(C)C)CC(C)C)CC(C)C)CC(C)C)CC(C)C)CC(C)C (stereo not drawn) [Compound 33, Ac(Ibu-Ibu-Aminoethyl)3-Lys-NH2] | >512 µg/mL |
| CC(=O)N(CCC(=O)N(CCC(=O)N(CCN)CCC(=O)N(CCC(=O)N(CCC(=O)N(CCN)CCC(=O)N(CCC(=O)N(CCC(=O)N(CCN)CCC(=O)N(CCC(=O)N(CCC(=O)N(CCN)CCC(=O)NC(CCCCN)C(N)=O)CC(C)C)CC(C)C)CC(C)C)CC(C)C)CC(C)C)CC(C)C)CC(C)C)CC(C)C (stereo not drawn) [Compound 34, Ac(Ibu-Ibu-Aminoethyl)4-Lys-NH2] | 256 µg/mL (≈ 154 µM) |
| CC(=O)N(CCC(=O)N(CCC(=O)N(CCN)CCC(=O)N(CCC(=O)N(CCC(=O)N(CCN)CCC(=O)N(CCC(=O)N(CCC(=O)N(CCN)CCC(=O)N(CCC(=O)N(CCC(=O)N(CCN)CCC(=O)N(CCC(=O)N(CCC(=O)N(CCN)CCC(=O)NC(CCCCN)C(N)=O)CC(C)C)CC(C)C)CC(C)C)CC(C)C)CC(C)C)CC(C)C)CC(C)C)CC(C)C)CC(C)C)CC(C)C (stereo not drawn) [Compound 36, Ac(Ibu-Ibu-Aminoethyl)5-Lys-NH2] | 256 µg/mL (≈ 126 µM) |
| CC(=O)N(CCC(=O)N(CCC(=O)N(CCCCN)CCC(=O)N(CCC(=O)N(CCC(=O)N(CCCCN)CCC(=O)N(CCC(=O)N(CCC(=O)N(CCCCN)CCC(=O)NC(CCCCN)C(N)=O)CC(C)C)CC(C)C)CC(C)C)CC(C)C)CC(C)C)CC(C)C (stereo not drawn) [Compound 38, Ac(Ibu-Ibu-Aminobutyl)3-Lys-NH2] | >512 µg/mL |
| CC(=O)N(CCC(=O)N(CCCCN)CCC(=O)N(CCC(=O)N(CCCCN)CCC(=O)N(CCC(=O)N(CCCCN)CCC(=O)NC(CCCCN)C(N)=O)CC(C)C)CC(C)C)CC(C)C (centres unmarked) [Compound 41, Ac(Ibu-Aminobutyl)3-Lys-NH2] | 512 µg/mL (≈ 514 µM) |

Second part, the compound after the results:

| MIC | Compound |
| --- | --- |
| 128 µg/mL (≈ 44.8 µM) | CC(=O)N(CCC(=O)N(CCCN(C)C)CCC(=O)N(CCC(=O)N(CCC(=O)N(CCCN(C)C)CCC(=O)N(CCC(=O)N(CCC(=O)N(CCCN(C)C)CCC(=O)N(CCC(=O)N(CCC(=O)N(CCCN(C)C)CCC(=O)N(CCC(=O)N(CCC(=O)N(CCCN(C)C)CCC(=O)N(CCC(=O)N(CCC(=O)N(CCCN(C)C)CCC(=O)N(CCC(=O)NC(CCCCN)C(N)=O)CC(C)C)Cc1ccccc1)CC(C)C)Cc1ccccc1)CC(C)C)Cc1ccccc1)CC(C)C)Cc1ccccc1)CC(C)C)Cc1ccccc1)CC(C)C)Cc1ccccc1 (centres unmarked) [Compound 22, Ac(Bz-DMAP-Ibu)6-Lys-NH2] |
| 512 µg/mL (≈ 337 µM) | CC(=O)N(CCC(=O)N(CCC(=O)N(CCCN(C)C)CCC(=O)N(CCC(=O)N(CCC(=O)N(CCCN(C)C)CCC(=O)N(CCC(=O)N(CCC(=O)N(CCCN(C)C)CCC(=O)NC(CCCCN)C(N)=O)CC(C)C)Cc1ccccc1)CC(C)C)Cc1ccccc1)CC(C)C)Cc1ccccc1 (centres unmarked) [Compound 23, Ac(Bz-Ibu-DMAP)3-Lys-NH2] |
| 128 µg/mL (≈ 65.1 µM) | CC(=O)N(CCC(=O)N(CCC(=O)N(CCCN(C)C)CCC(=O)N(CCC(=O)N(CCC(=O)N(CCCN(C)C)CCC(=O)N(CCC(=O)N(CCC(=O)N(CCCN(C)C)CCC(=O)N(CCC(=O)N(CCC(=O)N(CCCN(C)C)CCC(=O)NC(CCCCN)C(N)=O)CC(C)C)Cc1ccccc1)CC(C)C)Cc1ccccc1)CC(C)C)Cc1ccccc1)CC(C)C)Cc1ccccc1 (centres unmarked) [Compound 24, Ac(Bz-Ibu-DMAP)4-Lys-NH2] |
| 128 µg/mL (≈ 53.1 µM) | CC(=O)N(CCC(=O)N(CCC(=O)N(CCCN(C)C)CCC(=O)N(CCC(=O)N(CCC(=O)N(CCCN(C)C)CCC(=O)N(CCC(=O)N(CCC(=O)N(CCCN(C)C)CCC(=O)N(CCC(=O)N(CCC(=O)N(CCCN(C)C)CCC(=O)N(CCC(=O)N(CCC(=O)N(CCCN(C)C)CCC(=O)NC(CCCCN)C(N)=O)CC(C)C)Cc1ccccc1)CC(C)C)Cc1ccccc1)CC(C)C)Cc1ccccc1)CC(C)C)Cc1ccccc1)CC(C)C)Cc1ccccc1 (centres unmarked) [Compound 25, Ac(Bz-Ibu-DMAP)5-Lys-NH2] |
| 256 µg/mL (≈ 121 µM) | CC(=O)N(CCC(=O)N(CCN)CCC(=O)N(CCC(=O)N(CCN)CCC(=O)N(CCC(=O)N(CCN)CCC(=O)N(CCC(=O)N(CCN)CCC(=O)N(CCC(=O)N(CCN)CCC(=O)N(CCC(=O)N(CCN)CCC(=O)N(CCC(=O)N(CCN)CCC(=O)N(CCC(=O)N(CCN)CCC(=O)NC(CCCCN)C(N)=O)CC(C)C)CC(C)C)CC(C)C)CC(C)C)CC(C)C)CC(C)C)CC(C)C)CC(C)C (centres unmarked) [Compound 32, Ac(Ibu-Aminoethyl)8-Lys-NH2] |
| >512 µg/mL | CC(=O)N(CCC(=O)N(CCC(=O)N(CCCCN)CCC(=O)N(CCC(=O)N(CCC(=O)N(CCCCN)CCC(=O)NC(CCCCN)C(N)=O)CC(C)C)CC(C)C)CC(C)C)CC(C)C (stereo not drawn) [Compound 37, Ac(Ibu-Ibu-Aminobutyl)2-Lys-NH2] |
